Experimental data reported in patent US4436751A, “Nitrobenzyl monates antibacterial compounds” (Beecham Group Limited, priority 1980, dated 1984).
Converted amounts (≈) assume the structure as drawn. Like-named read-outs stand apart in the source and are kept apart here.

What was measured:
Assay type in all cases: cell-based
M. dispar RCTC 10125 = experiment: Anti-mycoplasmal MIC in vitro, Friis broth agarose (Table 1); conditions: 144 h
M. suipneumoniae NB12 = experiment: as above; conditions: Mesomycoplasma hyopneumoniae
[1] = system: M. hyosynoviae ATOC 25591; experiment: as above; conditions: 144 h
Staph. aureus Russell = experiment: Human bacteria MIC, nutrient agar with chocolated horse blood (Table 3); conditions: Staphylococcus aureus
Protocol: (§1) The values were determined by serial dilutions in nutrient agar with 5% chocolated horse blood after incubations for 18 hours at 37° C.

Strep. faecalis 1 = experiment: as above; conditions: Enterococcus faecalis; Strep. faecalis 1; nutrient agar 5% chocolated horse blood, 18 hours 37° C.; read-out: MIC
Protocol: as §1

[2] = system: Pasteurella multocida 1633; experiment: as above; conditions: Pasteurella multocida 1633; nutrient agar 5% chocolated horse blood, 18 hours 37° C.; read-out: MIC
Protocol: as §1

[3] = system: Ps. aeruginosa NCTC 10662; experiment: as above; conditions: Pseudomonas aeruginosa
Protocol: as §1

E. Coli NCTC 10418 [4] = experiment: as above; conditions: Escherichia coli
Protocol: as §1

Bacillus subtilis 6633 = experiment: as above
Protocol: as §1

P. mirabilis 889 = experiment: as above
Protocol: as §1

Sarcina lutea 8340 = experiment: as above
Protocol: as §1

[5] = system: Strep. pyogenes R80/421-A; experiment: as above; conditions: Streptococcus pyogenes
Protocol: as §1

Staph. aureus W2827 = experiment: as above; conditions: Staphylococcus aureus
Protocol: as §1

[6] = system: Corynebacterium xerosis 9755; experiment: as above
Protocol: as §1

[7] = system: Haemophilus influenzae Q1; experiment: as above
Protocol: as §1

Staph. aureus Oxford = experiment: as above; conditions: Staphylococcus aureus
Protocol: as §1

K. aerogenes A = experiment: as above; conditions: Klebsiella aerogenes
Protocol: as §1

M. suipneumoniae JF 435 = experiment: Anti-mycoplasmal MIC in vitro, Friis broth agarose (Table 1); conditions: Mesomycoplasma hyopneumoniae, JF435, 144 h
M. suipneumoniae OCD 1 = experiment: as above; conditions: Mesomycoplasma hyopneumoniae, OCD1, 144 h
E. Coli NCTC 10418 [8] = experiment: Veterinary bacteria MIC, Diagnostic Sensitivity Test Agar (Table 2); conditions: Escherichia coli
Protocol: (§2) The values were determined using a two fold serial dilutions in Diagnostic Sensitivity Test Agar with an inoculum of 10^4 organisms and incubation for 18 hours at 37° C.

Bord. bronchiseptica BO8 = experiment: as above; conditions: Bordetella bronchiseptica
Protocol: as §2

Strep. uberis SPO1 = experiment: as above; conditions: Streptococcus uberis; Strep. uberis SPO1; DST Agar, 10^4 organisms, 18 hours 37° C.; read-out: MIC
Protocol: as §2

Past. haemolytica PA5 = experiment: as above; conditions: Mannheimia haemolytica
Protocol: as §2

Bord. bronchiseptica BO9 = experiment: as above; conditions: Bordetella bronchiseptica; Bord. bronchiseptica BO9; DST Agar, 10^4 organisms, 18 hours 37° C.; read-out: MIC
Protocol: as §2

Past. multocida PA1 = experiment: as above; conditions: Pasteurella multocida
Protocol: as §2

[9] = system: M. bovigenitalium ATOC 14173; experiment: Anti-mycoplasmal MIC in vitro, Friis broth agarose (Table 1); conditions: 144 h
M. hyorhinis ATCC 23234 = experiment: as above; conditions: Mesomycoplasma hyorhinis, ATCC23234, 144 h
[10] = Staph. aureus Russell, nutrient agar 5% chocolated horse blood, 18 hours 37° C., read-out: MIC
[11] = NCTC10662, Ps. aeruginosa NCTC 10662, nutrient agar 5% chocolated horse blood, 18 hours 37° C., read-out: MIC
[12] = NCTC10418, E. coli NCTC 10418, nutrient agar 5% chocolated horse blood, 18 hours 37° C., read-out: MIC
[13] = Proteus mirabilis, P. mirabilis 889, nutrient agar 5% chocolated horse blood, 18 hours 37° C., read-out: MIC
[14] = Micrococcus luteus, Sarcina lutea 8340, nutrient agar 5% chocolated horse blood, 18 hours 37° C., read-out: MIC
[15] = Staph. aureus W2827, nutrient agar 5% chocolated horse blood, 18 hours 37° C., read-out: MIC
[16] = Corynebacterium xerosis 9755, nutrient agar 5% chocolated horse blood, 18 hours 37° C., read-out: MIC
[17] = Haemophilus influenzae Q1, nutrient agar 5% chocolated horse blood, 18 hours 37° C., read-out: MIC
[18] = Staph. aureus Oxford, nutrient agar 5% chocolated horse blood, 18 hours 37° C., read-out: MIC
[19] = K. aerogenes A, nutrient agar 5% chocolated horse blood, 18 hours 37° C., read-out: MIC
[20] = M. suipneumoniae JF 435, in vitro, 6 days 37° C., read-out: MIC
[21] = M. suipneumoniae OCD 1, in vitro, 6 days 37° C., read-out: MIC
[22] = NCTC10418, E. Coli NCTC 10418, DST Agar, 10^4 organisms, 18 hours 37° C., read-out: MIC
[23] = Past. multocida PA1, DST Agar, 10^4 organisms, 18 hours 37° C., read-out: MIC
[24] = Past. haemolytica PA5, DST Agar, 10^4 organisms, 18 hours 37° C., read-out: MIC

SMILES	MIC (M. dispar RCTC 10125) [µg/mL]	MIC (M. suipneumoniae NB12; NB12, 144 h) [µg/mL]	MIC [1] [µg/mL]	MIC (Staph. aureus Russell; [10]) [µg/mL]	MIC (Strep. faecalis 1) [µg/mL]	MIC [2] [µg/mL]	MIC [3, 11] [µg/mL]	MIC (E. Coli NCTC 10418 [4]; [12]) [µg/mL]	MIC (P. mirabilis 889; [13]) [µg/mL]	MIC (Sarcina lutea 8340; [14]) [µg/mL]	MIC ([5]; R80/421A, 18 h) [µg/mL]	MIC (Staph. aureus W2827; [15]) [µg/mL]	MIC [6, 16] [µg/mL]	MIC [7, 17] [µg/mL]	MIC (Staph. aureus Oxford; [18]) [µg/mL]	MIC (K. aerogenes A; [19]) [µg/mL]	MIC (M. suipneumoniae JF 435; [20]) [µg/mL]	MIC (Strep. uberis SPO1) [µg/mL]	MIC (Bord. bronchiseptica BO9) [µg/mL]	MIC [9] [µg/mL]	other results
C/C(=C\C(=O)OCc1ccc([N+](=O)[O-])cc1)CC1OCC(CC2OC2C(C)C(C)O)C(O)C1O (stereo not drawn) [Example 1, p-nitrobenzyl monate A]	0.025 (≈ 0.0521 µM)	0.05 (≈ 0.104 µM)	< 0.01	0.5 (≈ 1.04 µM)	50 (≈ 104 µM)	0.5 (≈ 1.04 µM)	> 100	25 (≈ 52.1 µM)	100 (≈ 209 µM)	> 100	0.25 (≈ 0.521 µM)	0.5 (≈ 1.04 µM)	> 100	0.1 (≈ 0.209 µM)	0.5 (≈ 1.04 µM)	100 (≈ 209 µM)	0.1 (≈ 0.209 µM)	0.039 (≈ 0.0813 µM)	1.25 (≈ 2.61 µM)	< 0.01	MIC (Bacillus subtilis 6633; Bacillus subtilis 6633, nutrient agar 5% chocolated horse blood, 18 hours 37° C., read-out: MIC): 0.5 µg/mL (≈ 1.04 µM); MIC (M. suipneumoniae OCD 1; [21]): 0.1 µg/mL (≈ 0.209 µM); MIC (E. Coli NCTC 10418 [8]; [22]): 40 µg/mL (≈ 83.4 µM); MIC (Bord. bronchiseptica BO8; BO8, 18 h): 5 µg/mL (≈ 10.4 µM); MIC (Past. haemolytica PA5; PA5, 18 h): 1.25 µg/mL (≈ 2.61 µM); MIC (Past. multocida PA1; [23]): 0.156 µg/mL (≈ 0.325 µM); MIC (M. hyorhinis ATCC 23234): 0.05 µg/mL (≈ 0.104 µM)
C/C(=C\C(=O)OC(C)c1cccc([N+](=O)[O-])c1)CC1OCC(CC2OC2C(C)C(C)O)C(O)C1O (stereo not drawn) [Example 3, 1-(m-nitrophenyl)ethyl monate A]	0.05 (≈ 0.101 µM)	–	–	2.5 (≈ 5.07 µM)	> 100	25 (≈ 50.7 µM)	> 100	> 100	> 100	> 100	1 (≈ 2.03 µM)	5 (≈ 10.1 µM)	> 100	–	2.5 (≈ 5.07 µM)	> 100	0.25 (≈ 0.507 µM)	0.312 (≈ 0.632 µM)	80 (≈ 162 µM)	0.05 (≈ 0.101 µM)	MIC (M. suipneumoniae NB12; 144 h, M. suipneumoniae NB12, in vitro, 6 days 37° C., read-out: MIC): 0.25 µg/mL (≈ 0.507 µM); MIC ([1]; M. hyosynoviae ATOC 25591, in vitro, 6 days 37° C., read-out: MIC): 0.25 µg/mL (≈ 0.507 µM); MIC (Bacillus subtilis 6633; Bacillus subtilis, 6633, 18 h): 1 µg/mL (≈ 2.03 µM); MIC ([7]; Haemophilus influenzae, Q1, 18 h): 1 µg/mL (≈ 2.03 µM); MIC (M. suipneumoniae OCD 1; [21]): 0.25 µg/mL (≈ 0.507 µM); MIC (E. Coli NCTC 10418 [8]; [22]): > 80 µg/mL; MIC (Bord. bronchiseptica BO8; Bord. bronchiseptica BO8, DST Agar, 10^4 organisms, 18 hours 37° C., read-out: MIC): > 80 µg/mL; MIC (Past. haemolytica PA5; [24]): 40 µg/mL (≈ 81 µM); MIC (Past. multocida PA1; [23]): 20 µg/mL (≈ 40.5 µM); MIC (M. hyorhinis ATCC 23234; M. hyorhinis ATCC 23234, in vitro, 6 days 37° C., read-out: MIC): 0.1 µg/mL (≈ 0.203 µM)
C/C(=C\C(=O)OCc1ccc([N+](=O)[O-])cc1Cl)CC1OCC(CC2OC2C(C)C(C)O)C(O)C1O (stereo not drawn) [Example 11, 2-chloro-4-nitrobenzyl monate A]	0.5 (≈ 0.973 µM)	1 (≈ 1.95 µM)	0.1 (≈ 0.195 µM)	–	50 (≈ 97.3 µM)	5 (≈ 9.73 µM)	–	–	–	–	–	–	–	2.5 (≈ 4.86 µM)	–	–	–	≤ 0.019	2.5 (≈ 4.86 µM)	0.05 (≈ 0.0973 µM)	MIC (Staph. aureus Russell; 18 h): 1 µg/mL (≈ 1.95 µM); MIC ([3]; NCTC10662, 18 h): > 100 µg/mL; MIC (E. Coli NCTC 10418 [4]; NCTC10418, 18 h): > 100 µg/mL; MIC (Bacillus subtilis 6633; Bacillus subtilis, 6633, 18 h): 0.5 µg/mL (≈ 0.973 µM); MIC (P. mirabilis 889; Proteus mirabilis, 889, 18 h): > 100 µg/mL; MIC (Sarcina lutea 8340; Micrococcus luteus, 8340, 18 h): > 100 µg/mL; MIC ([5]; Strep. pyogenes R80/421-A, nutrient agar 5% chocolated horse blood, 18 hours 37° C., read-out: MIC): 1 µg/mL (≈ 1.95 µM); MIC (Staph. aureus W2827; W2827, 18 h): 1 µg/mL (≈ 1.95 µM); MIC ([6]; Corynebacterium xerosis, 9755, 18 h): > 100 µg/mL; MIC (Staph. aureus Oxford; 18 h): 1 µg/mL (≈ 1.95 µM); MIC (K. aerogenes A; 18 h): > 100 µg/mL; MIC (M. suipneumoniae JF 435): 2.5 µg/mL (≈ 4.86 µM); MIC (M. suipneumoniae OCD 1): 2.5 µg/mL (≈ 4.86 µM); MIC (E. Coli NCTC 10418 [8]; NCTC10418, 18 h): 80 µg/mL (≈ 156 µM); MIC (Bord. bronchiseptica BO8; BO8, 18 h): 10 µg/mL (≈ 19.5 µM); MIC (Past. haemolytica PA5; [24]): 2.5 µg/mL (≈ 4.86 µM); MIC (Past. multocida PA1; PA1, 18 h): 0.625 µg/mL (≈ 1.22 µM); MIC (M. hyorhinis ATCC 23234): 0.5 µg/mL (≈ 0.973 µM)
